PubChem BioAssay (NCI)
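Following 48 hours of exposure in 96-well plates, responses at five concentrations were used to interpolate endpoints linearly. Definition used: TGI = concentration required for complete inhibition of growth.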

Key:
Assay in all cases: NCI tumour cell line growth inhibition, 48 h
SNB-19 CNS = test system: SNB-19 CNS
DU-145 prostate = test system: DU-145 prostate
LOX IMVI melanoma = test system: LOX IMVI melanoma
NCI-H23 lung = test system: NCI-H23 lung
COLO 205 colon = test system: COLO 205 colon
MOLT-4 leukemia = test system: MOLT-4 leukemia
TK-10 renal = test system: TK-10 renal
UACC-62 melanoma = test system: UACC-62 melanoma
SF-268 CNS = test system: SF-268 CNS
HOP-18 NSCLC = test system: HOP-18 NSCLC
SR leukemia = test system: SR leukemia
A498 renal = test system: A498 renal
OVCAR-5 ovarian = test system: OVCAR-5 ovarian
RXF-631 renal = test system: RXF-631 renal
UO-31 renal = test system: UO-31 renal
SK-OV-3 ovarian = test system: SK-OV-3 ovarian
OVCAR-8 ovarian = test system: OVCAR-8 ovarian
HT29 colon = test system: HT29 colon
M14 melanoma = test system: M14 melanoma
OVCAR-3 ovarian = test system: OVCAR-3 ovarian
MDA-MB-435 = test system: MDA-MB-435
SNB-75 CNS = test system: SNB-75 CNS
SW-620 colon = test system: SW-620 colon
DMS 273 small cell lung = test system: DMS 273 small cell lung
T-47D breast = test system: T-47D breast
NCI-H460 lung = test system: NCI-H460 lung
786-0 renal = test system: 786-0 renal
LXFL 529 NSCLC = test system: LXFL 529 NSCLC
MDA-MB-231 breast = test system: MDA-MB-231 breast
NCI-H226 lung = test system: NCI-H226 lung
RPMI-8226 leukemia = test system: RPMI-8226 leukemia
HL-60(TB) leukemia = test system: HL-60(TB) leukemia
SF-539 CNS = test system: SF-539 CNS
HOP-62 NSCLC = test system: HOP-62 NSCLC
A549 NSCLC = test system: A549 NSCLC
SNB-78 CNS = test system: SNB-78 CNS
IGROV1 ovarian = test system: IGROV1 ovarian
CAKI-1 renal = test system: CAKI-1 renal
ACHN renal = test system: ACHN renal
PC-3 prostate = test system: PC-3 prostate
DLD-1 colon = test system: DLD-1 colon
EKVX NSCLC = test system: EKVX NSCLC
CCRF-CEM leukemia = test system: CCRF-CEM leukemia
K-562 leukemia = test system: K-562 leukemia
UACC-257 melanoma = test system: UACC-257 melanoma
SN12C renal = test system: SN12C renal
M19-MEL melanoma = test system: M19-MEL melanoma
BT-549 breast = test system: BT-549 breast
U251 CNS = test system: U251 CNS
KM12 colon = test system: KM12 colon
SK-MEL-5 melanoma = test system: SK-MEL-5 melanoma
KM20L2 colon = test system: KM20L2 colon
OVCAR-4 ovarian = test system: OVCAR-4 ovarian
HCT-116 colon = test system: HCT-116 colon
DMS 114 small cell lung = test system: DMS 114 small cell lung
MCF7 breast = test system: MCF7 breast
HCT-15 colon = test system: HCT-15 colon
NCI/ADR-RES ovarian = test system: NCI/ADR-RES ovarian
NCI-H522 lung = test system: NCI-H522 lung
MALME-3M melanoma = test system: MALME-3M melanoma
HS 578T breast = test system: HS 578T breast
SK-MEL-2 melanoma = test system: SK-MEL-2 melanoma
RXF 393 renal = test system: RXF 393 renal
SK-MEL-28 melanoma = test system: SK-MEL-28 melanoma
XF 498 CNS = test system: XF 498 CNS
SF-295 CNS = test system: SF-295 CNS
HOP-92 NSCLC = test system: HOP-92 NSCLC
HCC-2998 colon = test system: HCC-2998 colon

O=C(NC(=O)c1ccccc1[N+](=O)[O-])Nc1ccc(Oc2ncc(Cl)cn2)c([N+](=O)[O-])c1
TGI (SNB-19 CNS): > 100 µM
TGI (DU-145 prostate): > 100 µM
TGI (LOX IMVI melanoma): > 100 µM
TGI (NCI-H23 lung): > 28 µM
TGI (COLO 205 colon): 6.06 µM
TGI (MOLT-4 leukemia): > 100 µM
TGI (TK-10 renal): > 100 µM
TGI (UACC-62 melanoma): > 100 µM
TGI (SF-268 CNS): > 100 µM
TGI (HOP-18 NSCLC): > 100 µM
TGI (SR leukemia): > 100 µM
TGI (A498 renal): 30.3 µM
TGI (OVCAR-5 ovarian): > 100 µM
TGI (RXF-631 renal): > 100 µM
TGI (UO-31 renal): > 95.7 µM
TGI (SK-OV-3 ovarian): > 69.3 µM
TGI (OVCAR-8 ovarian): > 100 µM
TGI (HT29 colon): 3.31 µM
TGI (M14 melanoma): > 100 µM
TGI (OVCAR-3 ovarian): > 7.67 µM
TGI (MDA-MB-435): 0.197 µM
TGI (SNB-75 CNS): 0.313 µM
TGI (SW-620 colon): > 100 µM
TGI (DMS 273 small cell lung): > 100 µM
TGI (T-47D breast): > 100 µM
TGI (NCI-H460 lung): > 100 µM
TGI (786-0 renal): > 100 µM
TGI (LXFL 529 NSCLC): > 100 µM
TGI (MDA-MB-231 breast): 63.1 µM
TGI (NCI-H226 lung): 1.07 µM
TGI (RPMI-8226 leukemia): > 100 µM
TGI (HL-60(TB) leukemia): 1.17 µM
TGI (SF-539 CNS): 8.38 µM
TGI (HOP-62 NSCLC): > 100 µM
TGI (A549 NSCLC): > 100 µM
TGI (SNB-78 CNS): > 100 µM
TGI (IGROV1 ovarian): > 71.8 µM
TGI (CAKI-1 renal): > 100 µM
TGI (ACHN renal): > 100 µM
TGI (PC-3 prostate): > 100 µM
TGI (DLD-1 colon): > 100 µM
TGI (EKVX NSCLC): > 100 µM
TGI (CCRF-CEM leukemia): > 100 µM
TGI (K-562 leukemia): > 100 µM
TGI (UACC-257 melanoma): > 100 µM
TGI (SN12C renal): > 100 µM
TGI (M19-MEL melanoma): > 100 µM
TGI (BT-549 breast): > 100 µM
TGI (U251 CNS): > 88.6 µM
TGI (KM12 colon): > 66.3 µM
TGI (SK-MEL-5 melanoma): > 14.1 µM
TGI (KM20L2 colon): 0.383 µM
TGI (OVCAR-4 ovarian): > 100 µM
TGI (HCT-116 colon): > 100 µM
TGI (DMS 114 small cell lung): 0.359 µM
TGI (MCF7 breast): > 100 µM
TGI (HCT-15 colon): > 95.6 µM
TGI (NCI/ADR-RES ovarian): 3.15 µM
TGI (NCI-H522 lung): 1.68 µM
TGI (MALME-3M melanoma): > 100 µM
TGI (HS 578T breast): 0.636 µM
TGI (SK-MEL-2 melanoma): > 100 µM

O=c1c2ccccc2nc2n1-c1ccccc1SC2
TGI (SNB-19 CNS): > 100 µM
TGI (LOX IMVI melanoma): > 100 µM
TGI (NCI-H23 lung): > 100 µM
TGI (COLO 205 colon): > 100 µM
TGI (MOLT-4 leukemia): 75.3 µM
TGI (TK-10 renal): > 100 µM
TGI (UACC-62 melanoma): > 100 µM
TGI (SF-268 CNS): > 100 µM
TGI (A498 renal): > 100 µM
TGI (OVCAR-5 ovarian): > 100 µM
TGI (RXF 393 renal): > 100 µM
TGI (RXF-631 renal): > 100 µM
TGI (SK-MEL-28 melanoma): > 100 µM
TGI (UO-31 renal): > 100 µM
TGI (SK-OV-3 ovarian): > 100 µM
TGI (OVCAR-8 ovarian): > 100 µM
TGI (HT29 colon): > 100 µM
TGI (XF 498 CNS): 91.3 µM
TGI (M14 melanoma): > 100 µM
TGI (OVCAR-3 ovarian): > 100 µM
TGI (SNB-75 CNS): 56.2 µM
TGI (SW-620 colon): > 100 µM
TGI (DMS 273 small cell lung): > 100 µM
TGI (NCI-H460 lung): > 100 µM
TGI (786-0 renal): > 100 µM
TGI (LXFL 529 NSCLC): > 100 µM
TGI (RPMI-8226 leukemia): 71.9 µM
TGI (SF-539 CNS): > 100 µM
TGI (HOP-62 NSCLC): > 100 µM
TGI (A549 NSCLC): > 100 µM
TGI (SNB-78 CNS): > 100 µM
TGI (IGROV1 ovarian): > 100 µM
TGI (CAKI-1 renal): > 100 µM
TGI (ACHN renal): > 100 µM
TGI (DLD-1 colon): > 100 µM
TGI (EKVX NSCLC): > 100 µM
TGI (CCRF-CEM leukemia): > 100 µM
TGI (K-562 leukemia): > 100 µM
TGI (UACC-257 melanoma): > 100 µM
TGI (SN12C renal): > 100 µM
TGI (M19-MEL melanoma): > 100 µM
TGI (SF-295 CNS): > 100 µM
TGI (U251 CNS): > 100 µM
TGI (KM12 colon): > 100 µM
TGI (HOP-92 NSCLC): > 100 µM
TGI (SK-MEL-5 melanoma): 86.9 µM
TGI (KM20L2 colon): > 100 µM
TGI (OVCAR-4 ovarian): > 100 µM
TGI (HCT-116 colon): > 100 µM
TGI (DMS 114 small cell lung): > 100 µM
TGI (HCT-15 colon): > 100 µM
TGI (NCI-H522 lung): 70.8 µM
TGI (HCC-2998 colon): > 100 µM
TGI (MALME-3M melanoma): > 100 µM
TGI (SK-MEL-2 melanoma): > 100 µM

N#CCCN(CCC#N)c1ccc(/C=C(\NC(=O)c2cc([N+](=O)[O-])ccc2Cl)C(=O)Nc2ccccc2)cc1
TGI (SNB-19 CNS): > 100 µM
TGI (LOX IMVI melanoma): > 100 µM
TGI (NCI-H23 lung): > 100 µM
TGI (COLO 205 colon): > 100 µM
TGI (MOLT-4 leukemia): > 100 µM
TGI (TK-10 renal): > 100 µM
TGI (UACC-62 melanoma): > 100 µM
TGI (SF-268 CNS): > 100 µM
TGI (HOP-18 NSCLC): > 100 µM
TGI (SR leukemia): > 100 µM
TGI (OVCAR-5 ovarian): > 100 µM
TGI (RXF 393 renal): > 100 µM
TGI (SK-MEL-28 melanoma): > 100 µM
TGI (UO-31 renal): > 100 µM
TGI (SK-OV-3 ovarian): > 100 µM
TGI (OVCAR-8 ovarian): > 100 µM
TGI (XF 498 CNS): > 100 µM
TGI (OVCAR-3 ovarian): > 100 µM
TGI (DMS 273 small cell lung): > 100 µM
TGI (LXFL 529 NSCLC): > 100 µM
TGI (NCI-H226 lung): > 100 µM
TGI (RPMI-8226 leukemia): > 100 µM
TGI (SF-539 CNS): > 100 µM
TGI (HOP-62 NSCLC): > 100 µM
TGI (A549 NSCLC): > 100 µM
TGI (SNB-78 CNS): > 100 µM
TGI (IGROV1 ovarian): > 100 µM
TGI (CAKI-1 renal): > 100 µM
TGI (ACHN renal): > 100 µM
TGI (DLD-1 colon): > 100 µM
TGI (EKVX NSCLC): > 100 µM
TGI (CCRF-CEM leukemia): > 100 µM
TGI (K-562 leukemia): > 100 µM
TGI (SN12C renal): > 100 µM
TGI (M19-MEL melanoma): > 100 µM
TGI (SF-295 CNS): > 100 µM
TGI (U251 CNS): > 100 µM
TGI (KM12 colon): > 100 µM
TGI (HOP-92 NSCLC): > 100 µM
TGI (SK-MEL-5 melanoma): > 100 µM
TGI (KM20L2 colon): > 100 µM
TGI (OVCAR-4 ovarian): > 100 µM
TGI (HCT-116 colon): > 100 µM
TGI (DMS 114 small cell lung): > 100 µM
TGI (HCT-15 colon): > 100 µM
TGI (NCI-H522 lung): > 100 µM
TGI (SK-MEL-2 melanoma): > 100 µM
